Assay results published in patent US10968212B2 (ACCUTAR BIOTECHNOLOGY INC., priority 2016, dated 2021).

Assays:
Estrogen Receptor alpha = molecular target: T1, Estrogen Receptor alpha (Homo sapiens, UniProt P03372); assay: Estrogen Receptor alpha degradation in MCF-7 cells (immunoblot, 20 hours); format: cell-based; conditions: concentrations from 1 nM to 1 μM, FIGS. 3A and 3B
T1 construct: endogenous in cells; host or cells: MCF7 or LTED cells
T1 sequence (P03372 1-595): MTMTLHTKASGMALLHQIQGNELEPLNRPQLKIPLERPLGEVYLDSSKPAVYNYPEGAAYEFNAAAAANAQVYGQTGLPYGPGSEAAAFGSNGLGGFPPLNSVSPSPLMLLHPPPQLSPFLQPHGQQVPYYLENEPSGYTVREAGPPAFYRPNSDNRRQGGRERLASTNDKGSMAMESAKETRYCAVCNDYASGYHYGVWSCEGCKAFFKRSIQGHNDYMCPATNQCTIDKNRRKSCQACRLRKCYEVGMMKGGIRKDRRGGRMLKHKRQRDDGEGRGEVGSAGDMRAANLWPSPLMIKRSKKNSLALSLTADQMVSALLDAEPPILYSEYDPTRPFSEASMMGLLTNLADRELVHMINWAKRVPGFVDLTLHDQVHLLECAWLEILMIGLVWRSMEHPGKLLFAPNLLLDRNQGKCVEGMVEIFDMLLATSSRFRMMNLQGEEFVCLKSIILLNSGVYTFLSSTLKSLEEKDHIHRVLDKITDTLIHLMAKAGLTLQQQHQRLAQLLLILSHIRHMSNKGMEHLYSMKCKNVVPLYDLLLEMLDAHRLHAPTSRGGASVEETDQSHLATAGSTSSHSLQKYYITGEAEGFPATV
Protocol: MCF-7 cells were maintained in high glucose DMEM (Corning cellgro, 15-013-CM), supplemented with 10% FBS, 1× L-Glutamine (29.2 mg/mL) and 1× Penicillin Streptomycin (10,000 I.U./mL Penicillin; 10,000 μg/mL Streptomycin; Corning, 30-009-CI). The resulting MCF-7 cells were plated into a 24-well plate at 1×10^5 cells/well, and the following day, compound was added to the cell medium at various concentrations. After treating the cell medium with compound, the cell plates were incubated for 20 hours at 37° C. Upon cooling, cells were lysed by addition of SDS loading buffer. The resulting cell lysates were subjected to immunoblotting by standard protocol. with primary antibodies of mouse anti-human ERα monoclonal antibody (Santa Cruz Biotechnology Inc., #SC-8002) and 1:1000 goat anti-human actin polyclonal antibody (Santa Cruz Biotechnology Inc. #SC-1616). Western blot results visualized using picoLUCENT™ PLUS-HRP ECL (G Biosciences, 786-165) and LI-CORC digit imaging system.

MCF-7 tumors = assay: Tumor growth inhibition in MCF-7 breast cancer-derived mouse xenograft model; format: in vivo; conditions: 10 mg/day, i.p., 3 weeks, BALB/c nude mice with MCF-7 tumors; FIG. 14A
Protocol: For the tumor growth inhibition study, female BALB/c nude mice (with supplemental 17-β estradiol) bearing MCF-7 tumors (mean tumor volume 211 mm^3) were i.p. treated with Accutar-153 (10 mg/day) in vehicle or by vehicle only for 3 weeks. Body weight and tumor volume (tumor volume=[length×width^2]/2) were monitored twice weekly. At the end of study, plasma, tumor tissues and organs (brain, liver, kidney) for each animal were collected for further analysis.
Female BALB/c nude mice (supplemented with 17-β estradiol) bearing MCF-7 tumors (mean tumor volume was 211 mm^3) were treated with the compound:
[drawing 197] (10 mg/day, i.p.) in vehicle, or by vehicle only, for 3 weeks. Body weight and tumor volume (tumor volume=[length×width^2]/2) were monitored twice weekly. At the end of study, plasma, tumor tissues and organs (brain, liver, kidney) for each animal were collected for further analysis. The tumor growth inhibition studies were performed twice.

SMILES | degradation of Estrogen Receptor alpha compared with the control (Estrogen Receptor alpha) | tumor weight, treatment group versus control group (MCF-7 tumors)
CC/C(=C(\c1ccccc1)c1ccc(OCCN(C)CCCCCCC(=O)N[C@H](C(=O)N2C[C@H](O)C[C@H]2C(=O)NCc2ccc(-c3scnc3C)cc2)C(C)(C)C)cc1)c1ccccc1 [Compound 4] | resulted in degradation of Estrogen Receptor alpha when compared with the control | 
CC/C(=C(\c1ccc(O)cc1)c1ccc(OCCNC(=O)CCCCCCC(=O)N[C@H](C(=O)N2C[C@H](O)C[C@H]2C(=O)NCc2ccc(-c3scnc3C)cc2)C(C)(C)C)cc1)c1ccccc1 |  | significant decrease in tumor weight
